Tested on: MV-4-11 cells
Assay: Gene expression microarray analysis (Affymetrix PrimeView) and GSEA
Assay type: cell-based, human
Parameters: RFU PODN (11730768_x_at) / Fold change /veh PODN (11730768_x_at) / RFU LINC00158 (11744669_a_at) / Fold change /veh LINC00158 (11744669_a_at) / RFU DUSP10 (11751237_a_at) / Fold change /veh DUSP10 (11751237_a_at) / RFU ID3 (11757404_x_at) / Fold change /veh ID3 (11757404_x_at) / RFU PLEKHG5 (11737974_s_at) / Fold change /veh PLEKHG5 (11737974_s_at) / RFU LRRC4B (11730491_at) / Fold change /veh LRRC4B (11730491_at) / RFU GIMAP4 (11747438_a_at) / Fold change /veh GIMAP4 (11747438_a_at) / RFU KRT8 (11758183_x_at) / Fold change /veh KRT8 (11758183_x_at) / RFU CNN1 (11734310_a_at) / Fold change /veh CNN1 (11734310_a_at) / RFU VPS37D (11726825_at) / Fold change /veh VPS37D (11726825_at) / RFU C10orf10 (11716522_x_at) / Fold change /veh C10orf10 (11716522_x_at) / RFU KIR2DL2 /// KIR2DL4 /// KIR2DL5A /// KIR2DL5B /// KIR2DS1 /// KIR2DS2 /// KIR2DS3 /// KIR2DS4 /// KIR3DL3 /// KIR3DL3 /// KIR3DS1 (11738374_at) / Fold change /veh KIR2DL2 /// KIR2DL4 /// KIR2DL5A /// KIR2DL5B /// KIR2DS1 /// KIR2DS2 /// KIR2DS3 /// KIR2DS4 /// KIR3DL3 /// KIR3DL3 /// KIR3DS1 (11738374_at) / RFU C1QL1 (11718748_at) / Fold change /veh C1QL1 (11718748_at) / RFU TMPRSS4 (11747572_a_at) / Fold change /veh TMPRSS4 (11747572_a_at) / RFU HAMP (11756126_x_at) / Fold change /veh HAMP (11756126_x_at) / RFU RNFT2 (11725882_a_at) / Fold change /veh RNFT2 (11725882_a_at) / RFU NR4A2 (11747474_a_at) / Fold change /veh NR4A2 (11747474_a_at) / RFU ABCC12 (11746883_a_at) / Fold change /veh ABCC12 (11746883_a_at) / RFU TMEM136 (11760407_x_at) / Fold change /veh TMEM136 (11760407_x_at) / RFU CLDN22 /// WWC2 (11732394_at) / Fold change /veh CLDN22 /// WWC2 (11732394_at) / RFU HLA-DPB1 (11760878_x_at) / Fold change /veh HLA-DPB1 (11760878_x_at) / RFU SPINT1 (11716480_a_at) / Fold change /veh SPINT1 (11716480_a_at) / RFU GAP43 (11754022_s_at) / Fold change /veh GAP43 (11754022_s_at) / RFU A4GNT (11735810_at) / Fold change /veh A4GNT (11735810_at) / RFU PRB3 (11715151_x_at) / Fold change /veh PRB3 (11715151_x_at) / RFU TUBB4B (11761932_at) / Fold change /veh TUBB4B (11761932_at) / RFU CAPN14 (11732068_a_at) / Fold change /veh CAPN14 (11732068_a_at) / RFU TMCC2 (11721928_a_at) / Fold change /veh TMCC2 (11721928_a_at) / RFU IRGQ (11745062_a_at) / Fold change /veh IRGQ (11745062_a_at) / RFU FAM174B (11720279_a_at) / Fold change /veh FAM174B (11720279_a_at) / RFU TMPRSS4 (11748680_a_at) / Fold change /veh TMPRSS4 (11748680_a_at) / RFU FAM212B (11763350_a_at) / Fold change /veh FAM212B (11763350_a_at) / RFU PLEKHG5 (11743358_a_at) / Fold change /veh PLEKHG5 (11743358_a_at) / RFU ZSCAN30 (11745921_a_at) / Fold change /veh ZSCAN30 (11745921_a_at) / RFU CMKLR1 (11741424_a_at) / Fold change /veh CMKLR1 (11741424_a_at) / RFU LOC101060620 /// MAPK8IP1 (11723275_at) / Fold change /veh LOC101060620 /// MAPK8IP1 (11723275_at) / RFU SPTSSB (11747773_x_at) / Fold change /veh SPTSSB (11747773_x_at) / RFU PRSS12 (11739890_at) / Fold change /veh PRSS12 (11739890_at) / RFU BIN1 (11741810_x_at) / Fold change /veh BIN1 (11741810_x_at) / RFU WNT11 (11732464_a_at) / Fold change /veh WNT11 (11732464_a_at) / RFU C10orf10 (11716521_a_at) / Fold change /veh C10orf10 (11716521_a_at) / RFU C5orf56 (11738089_at) / Fold change /veh C5orf56 (11738089_at) / RFU CYB561 (11721691_x_at) / Fold change /veh CYB561 (11721691_x_at) / RFU ANKRD19P (11752326_a_at) / Fold change /veh ANKRD19P (11752326_a_at) / RFU OR2T12 /// OR2T33 /// OR2T8 (11738714_s_at) / Fold change /veh OR2T12 /// OR2T33 /// OR2T8 (11738714_s_at) / RFU VCAN (11748164_a_at) / Fold change /veh VCAN (11748164_a_at) / RFU JSRP1 (11732532_at) / Fold change /veh JSRP1 (11732532_at) / RFU KRTAP10-11 (11738290_x_at) / Fold change /veh KRTAP10-11 (11738290_x_at) / RFU MYO3A (11730013_a_at) / Fold change /veh MYO3A (11730013_a_at) / RFU EBF3 (11725865_a_at) / Fold change /veh EBF3 (11725865_a_at) / RFU CAMK2N1 (11719241_x_at) / Fold change /veh CAMK2N1 (11719241_x_at) / RFU C5orf56 (11738088_a_at) / Fold change /veh C5orf56 (11738088_a_at) / RFU OLFML3 (11715873_a_at) / Fold change /veh OLFML3 (11715873_a_at) / RFU LOC100653217 /// NTM (11731650_a_at) / Fold change /veh LOC100653217 /// NTM (11731650_a_at) / RFU MAPK11 (11762145_a_at) / Fold change /veh MAPK11 (11762145_a_at) / RFU FIZ1 (11724087_x_at) / Fold change /veh FIZ1 (11724087_x_at) / RFU OASL (11726364_x_at) / Fold change /veh OASL (11726364_x_at) / RFU SOX15 (11748057_x_at) / Fold change /veh SOX15 (11748057_x_at) / RFU CD79A (11719716_a_at) / Fold change /veh CD79A (11719716_a_at) / RFU HIST1H1D (11736915_at) / Fold change /veh HIST1H1D (11736915_at) / RFU CASKIN2 (11723855_a_at) / Fold change /veh CASKIN2 (11723855_a_at) / RFU LOC730098 (11760151_x_at) / Fold change /veh LOC730098 (11760151_x_at) / RFU OR4N2 (11742367_at) / Fold change /veh OR4N2 (11742367_at) / RFU PRRT2 (11749266_a_at) / Fold change /veh PRRT2 (11749266_a_at) / RFU SNX32 (11753110_a_at) / Fold change /veh SNX32 (11753110_a_at) / RFU CDHR5 (11726645_a_at) / Fold change /veh CDHR5 (11726645_a_at) / RFU RCAN1 (11760418_a_at) / Fold change /veh RCAN1 (11760418_a_at) / RFU FAM167A (11723789_a_at) / Fold change /veh FAM167A (11723789_a_at) / RFU FAM26E (11764081_at) / Fold change /veh FAM26E (11764081_at) / RFU ISYNA1 (11749810_s_at) / Fold change /veh ISYNA1 (11749810_s_at) / RFU ACY1 (11761880_at) / Fold change /veh ACY1 (11761880_at) / RFU 11764098_at / Fold change /veh 11764098_at / RFU SAMD14 (11745864_x_at) / Fold change /veh SAMD14 (11745864_x_at) / RFU NPB (11741838_a_at) / Fold change /veh NPB (11741838_a_at) / RFU TMPRSS6 (11731388_a_at) / Fold change /veh TMPRSS6 (11731388_a_at) / RFU KRTAP10-2 (11738614_at) / Fold change /veh KRTAP10-2 (11738614_at) / RFU ARHGAP8 /// PRR5-ARHGAP8 (11727945_x_at) / Fold change /veh ARHGAP8 /// PRR5-ARHGAP8 (11727945_x_at) / RFU KRTAP5-7 /// NADSYN1 (11734609_at) / Fold change /veh KRTAP5-7 /// NADSYN1 (11734609_at) / RFU RASL12 (11751679_a_at) / Fold change /veh RASL12 (11751679_a_at) / RFU CDKN2B (11736163_a_at) / Fold change /veh CDKN2B (11736163_a_at) / RFU PRF1 (11729649_at) / Fold change /veh PRF1 (11729649_at) / RFU, ZNF638 /// ZNF638-IT1 / Fold change vs veh, ZNF638 /// ZNF638-IT1 / RFU, PANK3 / Fold change vs veh, PANK3 / RFU, SH3YL1 / Fold change vs veh, SH3YL1 / RFU, ZEB2 / Fold change vs veh, ZEB2 / RFU, NRIP1 / Fold change vs veh, NRIP1 / RFU, PTTG1IP / Fold change vs veh, PTTG1IP / RFU, CAPN2 / Fold change vs veh, CAPN2 / RFU, MED14 / Fold change vs veh, MED14 / RFU, SNORA58 / Fold change vs veh, SNORA58 / RFU, C1orf63 / Fold change vs veh, C1orf63 / RFU, LRRFIP1 / Fold change vs veh, LRRFIP1 / RFU, NDUFAF7 / Fold change vs veh, NDUFAF7 / RFU, SLC12A2 / Fold change vs veh, SLC12A2 / RFU, IBTK / Fold change vs veh, IBTK / RFU, ESF1 / Fold change vs veh, ESF1 / Fold change vs veh, TMEM50B / RFU, TAOK1 / Fold change vs veh, TAOK1 / RFU, ACBD3 / Fold change vs veh, ACBD3 / RFU, TMA16 / Fold change vs veh, TMA16 / RFU, RWDD3 / Fold change vs veh, RWDD3 / RFU, BCAT1 / Fold change vs veh, BCAT1 / RFU, EDEM3 / Fold change vs veh, EDEM3 / RFU, TMEM33 / Fold change vs veh, TMEM33 / RFU, WDR75 / Fold change vs veh, WDR75 / RFU, AHCTF1 / Fold change vs veh, AHCTF1 / RFU, TFRC / Fold change vs veh, TFRC / RFU, ZDHHC17 / Fold change vs veh, ZDHHC17 / RFU, NOM1 / Fold change vs veh, NOM1 / RFU, ARL8B / Fold change vs veh, ARL8B / RFU, ZBTB11 / Fold change vs veh, ZBTB11 / RFU, TAMM41 / Fold change vs veh, TAMM41 / RFU, KIAA1704 /// LOC100996395 / Fold change vs veh, KIAA1704 /// LOC100996395 / RFU, ING1 / Fold change vs veh, ING1 / RFU, TRMT61B / Fold change vs veh, TRMT61B / RFU, FUBP3 / Fold change vs veh, FUBP3 / RFU, TP53 / Fold change vs veh, TP53 / RFU, TNKS2 / Fold change vs veh, TNKS2 / RFU, ZFP14 / Fold change vs veh, ZFP14 / RFU, ACTR2 / Fold change vs veh, ACTR2 / RFU, PPP3R1 / Fold change vs veh, PPP3R1 / RFU, PIK3R1 / Fold change vs veh, PIK3R1 / RFU, HNRNPA1 / Fold change vs veh, HNRNPA1 / RFU, RNF170 / Fold change vs veh, RNF170 / RFU, ZNF28 / Fold change vs veh, ZNF28 / RFU, RNGTT / Fold change vs veh, RNGTT / RFU, OGT / Fold change vs veh, OGT / RFU, BRD1 / Fold change vs veh, BRD1 / RFU, MARS / Fold change vs veh, MARS / RFU, ZNF655 / Fold change vs veh, ZNF655 / RFU, FAHD1 / Fold change vs veh, FAHD1 / RFU, BDP1 / Fold change vs veh, BDP1 / RFU, LRRCC1 / Fold change vs veh, LRRCC1 / RFU, ARID1A / Fold change vs veh, ARID1A / RFU, ZNF146 / Fold change vs veh, ZNF146 / RFU, ZNF330 / Fold change vs veh, ZNF330 / RFU, GPN3 / Fold change vs veh, GPN3 / RFU, C9orf123 / Fold change vs veh, C9orf123 / RFU, N4BP2L2 / Fold change vs veh, N4BP2L2 / RFU, ARFIP1 / Fold change vs veh, ARFIP1 / RFU, FAM179B / Fold change vs veh, FAM179B / RFU, BCL10 / Fold change vs veh, BCL10 / RFU, UHRF1BP1L / Fold change vs veh, UHRF1BP1L / RFU, BET1 / Fold change vs veh, BET1 / RFU, CNOT2 / Fold change vs veh, CNOT2 / RFU, ZNF268 / Fold change vs veh, ZNF268 / Fold change vs veh, ZNF507 / RFU, DGCR2 / Fold change vs veh, DGCR2 / RFU, WDSUB1 / Fold change vs veh, WDSUB1 / Fold change vs veh, HSP90B1 /// MIR3652 / RFU, ADSS / Fold change vs veh, ADSS / RFU, GK / Fold change vs veh, GK / RFU, ZNF148 / Fold change vs veh, ZNF148 / RFU, TAF9 / Fold change vs veh, TAF9 / RFU, SLC1A5 / Fold change vs veh, SLC1A5 / RFU, SLMO2 / Fold change vs veh, SLMO2 / RFU, ABCC4 / Fold change vs veh, ABCC4 / RFU, LOC101060439 /// RAP1B / Fold change vs veh, LOC101060439 /// RAP1B / RFU, RFX7 / Fold change vs veh, RFX7 / RFU, GTPBP10 / Fold change vs veh, GTPBP10 / RFU, CNEP1R1 / Fold change vs veh, CNEP1R1 / RFU, BIVM-ERCC5 /// ERCC5 / Fold change vs veh, BIVM-ERCC5 /// ERCC5 / RFU, ILF3 / Fold change vs veh, ILF3 / RFU 11762660_at / Fold change /veh 11762660_at / RFU VCAN (11757783_s_at) / Fold change /veh VCAN (11757783_s_at) / RFU DDX43 (11728927_at) / Fold change /veh DDX43 (11728927_at) / RFU KRT8 (11758188_x_at) / Fold change /veh KRT8 (11758188_x_at) / RFU NKD1 (11759106_at) / Fold change /veh NKD1 (11759106_at) / RFU SRD5A1 (11742802_a_at) / Fold change /veh SRD5A1 (11742802_a_at) / RFU TPSAB1 /// TPSB2 (11721975_s_at) / Fold change /veh TPSAB1 /// TPSB2 (11721975_s_at) / RFU GSTM3 (11746129_a_at) / Fold change /veh GSTM3 (11746129_a_at) / RFU IL23R (11737362_x_at) / Fold change /veh IL23R (11737362_x_at) / RFU TMEM51 (11727254_a_at) / Fold change /veh TMEM51 (11727254_a_at) / RFU PIWIL2 (11732686_x_at) / Fold change /veh PIWIL2 (11732686_x_at) / RFU ORM1 (11744905_x_at) / Fold change /veh ORM1 (11744905_x_at) / RFU CCDC152 (11743942_at) / Fold change /veh CCDC152 (11743942_at) / RFU ECM1 (11717891_a_at) / Fold change /veh ECM1 (11717891_a_at) / RFU IL23R (11748794_a_at) / Fold change /veh IL23R (11748794_a_at) / RFU TNFAIP8L3 (11732012_x_at) / Fold change /veh TNFAIP8L3 (11732012_x_at) / RFU MBOAT4 (11741988_at) / Fold change /veh MBOAT4 (11741988_at) / RFU 11764193_at / Fold change /veh 11764193_at / RFU TMEM53 (11763286_at) / Fold change /veh TMEM53 (11763286_at) / RFU MAGEB2 (11727129_at) / Fold change /veh MAGEB2 (11727129_at) / RFU TMEM200A (11744735_a_at) / Fold change /veh TMEM200A (11744735_a_at) / RFU CCDC152 (11751479_a_at) / Fold change /veh CCDC152 (11751479_a_at) / RFU FAM211A (11726209_a_at) / Fold change /veh FAM211A (11726209_a_at) / RFU RGS16 (11746705_a_at) / Fold change /veh RGS16 (11746705_a_at) / RFU VCAN (11755009_s_at) / Fold change /veh VCAN (11755009_s_at) / RFU RHOB (11743442_s_at) / Fold change /veh RHOB (11743442_s_at) / RFU RGS16 (11720943_a_at) / Fold change /veh RGS16 (11720943_a_at) / RFU RGS16 (11720944_at) / Fold change /veh RGS16 (11720944_at) / RFU, VPS4B / Fold change vs veh, VPS4B / RFU, CREB1 / Fold change vs veh, CREB1 / RFU, DNAJC13 / Fold change vs veh, DNAJC13 / RFU, GNAQ / Fold change vs veh, GNAQ / RFU, CDK5R1 / Fold change vs veh, CDK5R1 / RFU, ZRANB3 / Fold change vs veh, ZRANB3 / RFU, CUL4A / Fold change vs veh, CUL4A / RFU, CCNY / Fold change vs veh, CCNY / RFU, UFL1 / Fold change vs veh, UFL1 / RFU, COG3 / Fold change vs veh, COG3 / RFU, DIAPH2 / Fold change vs veh, DIAPH2 / RFU, SKA2 / Fold change vs veh, SKA2 / RFU, AFF3 / Fold change vs veh, AFF3 / RFU, LMF1 / Fold change vs veh, LMF1 / RFU, IPO11 / Fold change vs veh, IPO11 / RFU, DFFB / Fold change vs veh, DFFB / RFU, FOXP1 / Fold change vs veh, FOXP1 / RFU, CARD8 / Fold change vs veh, CARD8 / RFU, STRN3 / Fold change vs veh, STRN3 / RFU, ADK / Fold change vs veh, ADK / RFU, RASSF2 / Fold change vs veh, RASSF2 / RFU, WIPF1 / Fold change vs veh, WIPF1 / RFU, LARP1B / Fold change vs veh, LARP1B / RFU, RASA1 / Fold change vs veh, RASA1 / RFU, RB1 / Fold change vs veh, RB1 / RFU, PPFIA1 / Fold change vs veh, PPFIA1 / RFU, MAT2A / Fold change vs veh, MAT2A / RFU, CCT5 / Fold change vs veh, CCT5 / RFU, WDR92 / Fold change vs veh, WDR92 / RFU, CUX1 / Fold change vs veh, CUX1 / RFU, TTC7A / Fold change vs veh, TTC7A / RFU, TMEM135 / Fold change vs veh, TMEM135 / RFU, DEPTOR / Fold change vs veh, DEPTOR / RFU, CPM / Fold change vs veh, CPM / RFU, DNAJB6 / Fold change vs veh, DNAJB6 / RFU, CACNA2D3 / Fold change vs veh, CACNA2D3 / RFU, DTX4 / Fold change vs veh, DTX4 / RFU, TFCP2 / Fold change vs veh, TFCP2 / RFU, GMCL1 /// GMCL1P1 / Fold change vs veh, GMCL1 /// GMCL1P1 / RFU, AEBP2 / Fold change vs veh, AEBP2 / RFU, SNHG1 /// SNORD22 /// SNORD25 /// SNORD26 /// SNORD27 /// SNORD28 /// SNORD29 /// SNORD31 / Fold change vs veh, SNHG1 /// SNORD22 /// SNORD25 /// SNORD26 /// SNORD27 /// SNORD28 /// SNORD29 /// SNORD31 / Fold change (Aza/veh), C12orf56 (ProbeSet 11735607_a_at) / Fold change (ACY-1035/veh), C12orf56 (ProbeSet 11735607_a_at) / Fold change (Aza/veh), FGFR1OP (ProbeSet 11751329_s_at) / Fold change (ACY-1035/veh), FGFR1OP (ProbeSet 11751329_s_at) / Fold change (Aza/veh), VPS36 (ProbeSet 11739960_a_at) / Fold change (ACY-1035/veh), VPS36 (ProbeSet 11739960_a_at) / RFU SYPL1 (11715823_x_at) / Fold change /veh SYPL1 (11715823_x_at) / RFU IGFBP7 (11715501_s_at) / Fold change /veh IGFBP7 (11715501_s_at) / RFU REEP3 (11722064_at) / Fold change /veh REEP3 (11722064_at) / RFU IGLL1 (11728026_x_at) / Fold change /veh IGLL1 (11728026_x_at): dose or concentration left out as unconfirmed
Details: MV-4-11 cells, 48 hours

For `Nc1ccc(-c2cccs2)cc1NC(=O)c1ccc2c(c1)cc(C1CC1)n2CCN1CCOCC1` [ACY-1035], the “RFU RGS16 (11720944_at)” value was 40.38 RFU.

— publication PMC5218480 (PLoS ONE, 2017)
